Reference: PubChem BioAssay AID1918957 (Molecular Pharmacology Branch, DTP, NCI, 2023)
“And” between values parts separate entries of the source, which are not always exact repeats. Identical values can stand only once.

Test system: NCI-H1876 complex spheroid viability
Assay: Anticancer human tumor NCI-H1876 cell line growth inhibition [LSD1];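 further: spheroids exposed to compounds for one week before readout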;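 on viability, T/C: 100% = DMSO vehicle-treated spheroids so lower means fewer viable cells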
Details: for viability, T/C: stronger effect = lower value
In short: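 Multicellular complex spheroids of tumor cells with human endothelial cells (HUVEC) and mesenchymal stem cells; the LSD1 inhibitor iadademstat was combined with standard-of-care or investigational agents. Top concentration at or near clinical Cmax, half-log dilutions; final DMSO ≤0.25%.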

[1] = curve of first compound, second compound 0.1 µM
[2] = curve of first compound, second compound 0.316 µM
[3] = curve of first compound, second compound 1 µM
[4] = curve of first compound, second compound 3.16 µM
[5] = curve of first compound, second compound 10 µM

How did the IC50 [1] turn out when `CC(C)CC(NC(=O)CNC(=O)c1cc(Cl)ccc1Cl)B1OC(=O)CC(CC(=O)O)(C(=O)O)O1` (configuration not stated) + NC1CCC(NC2CC2c2ccccc2)CC1 was run?
Its IC50 is 9.07 nM.

And the IC50 [2]?
Its IC50 is 8.75 nM.

And the IC50 [3]?
Its IC50 is 7.91 nM.

And the IC50 [4]?
The IC50 was 7.93 nM.

What about the IC50 [5] of the same molecule?
The IC50 was 7.52 nM.

What about the viability, T/C (second compound 0.1 µM, first compound 0.000316 µM) of the same molecule?
Its viability, T/C is 94.5%.

What about the viability, T/C (second compound 0.1 µM, first compound 0.001 µM) of the same molecule?
Its viability, T/C is 109%.

And the viability, T/C (second compound 0.1 µM, first compound 0.00316 µM)?
Its viability, T/C is 104%.

And the viability, T/C (second compound 0.1 µM, first compound 0.01 µM)?
Its viability, T/C is 45.1%.

And the viability, T/C (second compound 0.1 µM, first compound 0.0316 µM)?
Its viability, T/C is 8.77%.

And the viability, T/C (second compound 0.1 µM, first compound 0.1 µM)?
Its viability, T/C is 0.58%.

What about the viability, T/C (second compound 0.316 µM, first compound 0.000316 µM) of the same molecule?
The viability, T/C was 98.2%.

What about the viability, T/C (second compound 0.316 µM, first compound 0.001 µM) of the same molecule?
The viability, T/C was 108%.

What about the viability, T/C (second compound 0.316 µM, first compound 0.00316 µM) of the same molecule?
The viability, T/C was 104%.

What about the viability, T/C (second compound 0.316 µM, first compound 0.01 µM) of the same molecule?
The viability, T/C was 43%.

What about the viability, T/C (second compound 0.316 µM, first compound 0.0316 µM) of the same molecule?
Its viability, T/C is 7.91%.

And the viability, T/C (second compound 0.316 µM, first compound 0.1 µM)?
Its viability, T/C is 17.4%.

And the viability, T/C (second compound 1 µM, first compound 0.000316 µM)?
Its viability, T/C is 99.3%.

And the viability, T/C (second compound 1 µM, first compound 0.001 µM)?
The viability, T/C was 97.2%.

What about the viability, T/C (second compound 1 µM, first compound 0.00316 µM) of the same molecule?
The viability, T/C was 96.2%.

What about the viability, T/C (second compound 1 µM, first compound 0.01 µM) of the same molecule?
The viability, T/C was 38.2%.

What about the viability, T/C (second compound 1 µM, first compound 0.0316 µM) of the same molecule?
The viability, T/C was 9.23%.

And the viability, T/C (second compound 1 µM, first compound 0.1 µM)?
Its viability, T/C is 7.49%.

And the viability, T/C (second compound 3.16 µM, first compound 0.000316 µM)?
Its viability, T/C is 105%.

What about the viability, T/C (second compound 3.16 µM, first compound 0.001 µM) of the same molecule?
Its viability, T/C is 112%.

And the viability, T/C (second compound 3.16 µM, first compound 0.00316 µM)?
Its viability, T/C is 99%.

What about the viability, T/C (second compound 3.16 µM, first compound 0.01 µM) of the same molecule?
The viability, T/C was 36.5%.

What about the viability, T/C (second compound 3.16 µM, first compound 0.0316 µM) of the same molecule?
Its viability, T/C is 18.1%.

And the viability, T/C (second compound 3.16 µM, first compound 0.1 µM)?
Its viability, T/C is 0.81%.

And the viability, T/C (second compound 10 µM, first compound 0.000316 µM)?
Its viability, T/C is 99%.

And the viability, T/C (second compound 10 µM, first compound 0.001 µM)?
The viability, T/C was 104%.

What about the viability, T/C (second compound 10 µM, first compound 0.00316 µM) of the same molecule?
The viability, T/C was 93.9%.

And the viability, T/C (second compound 10 µM, first compound 0.01 µM)?
Its viability, T/C is 35.5%.

What about the viability, T/C (second compound 10 µM, first compound 0.0316 µM) of the same molecule?
Its viability, T/C is 15.6%.

What about the viability, T/C (second compound 10 µM, first compound 0.1 µM) of the same molecule?
Its viability, T/C is 13.8%.

How did the IC50 [1] turn out when `Nc1ccn(C2OC(CO)C(O)C2(F)F)c(=O)n1` (configuration not stated) + NC1CC1c1ccc(-c2cccc(O)c2)cc1 was run?
The IC50 was 6.24 nM.

What about the IC50 [2] of the same molecule?
The IC50 was 6.23 nM.

What about the IC50 [3] of the same molecule?
Its IC50 is 6.24 nM.

What about the IC50 [4] of the same molecule?
The IC50 was 6.33 nM.

What about the IC50 [5] of the same molecule?
The IC50 was 6.89 nM.

And the viability, T/C (second compound 0.1 µM, first compound 0.000949 µM)?
The viability, T/C was 104%.

What about the viability, T/C (second compound 0.1 µM, first compound 0.003 µM) of the same molecule?
Its viability, T/C is 93.9%.

And the viability, T/C (second compound 0.1 µM, first compound 0.00949 µM)?
Its viability, T/C is 24.8%.

What about the viability, T/C (second compound 0.1 µM, first compound 0.03 µM) of the same molecule?
The viability, T/C was 9.9%.

What about the viability, T/C (second compound 0.1 µM, first compound 0.0949 µM) of the same molecule?
The viability, T/C was 8.25%.

What about the viability, T/C (second compound 0.1 µM, first compound 0.3 µM) of the same molecule?
The viability, T/C was 7.07%.

And the viability, T/C (second compound 0.316 µM, first compound 0.000949 µM)?
The viability, T/C was 103%.

And the viability, T/C (second compound 0.316 µM, first compound 0.003 µM)?
Its viability, T/C is 91.5%.

And the viability, T/C (second compound 0.316 µM, first compound 0.00949 µM)?
The viability, T/C was 26%.

And the viability, T/C (second compound 0.316 µM, first compound 0.03 µM)?
The viability, T/C was 10.9%.

And the viability, T/C (second compound 0.316 µM, first compound 0.0949 µM)?
Its viability, T/C is 7.72%.

And the viability, T/C (second compound 0.316 µM, first compound 0.3 µM)?
Its viability, T/C is 7.02%.

What about the viability, T/C (second compound 1 µM, first compound 0.000949 µM) of the same molecule?
The viability, T/C was 108%.

What about the viability, T/C (second compound 1 µM, first compound 0.003 µM) of the same molecule?
The viability, T/C was 87.2%.

What about the viability, T/C (second compound 1 µM, first compound 0.00949 µM) of the same molecule?
The viability, T/C was 28.7%.

What about the viability, T/C (second compound 1 µM, first compound 0.03 µM) of the same molecule?
Its viability, T/C is 9.78%.

What about the viability, T/C (second compound 1 µM, first compound 0.0949 µM) of the same molecule?
The viability, T/C was 8.57%.

And the viability, T/C (second compound 1 µM, first compound 0.3 µM)?
The viability, T/C was 7.79%.

What about the viability, T/C (second compound 3.16 µM, first compound 0.000949 µM) of the same molecule?
The viability, T/C was 104%.

What about the viability, T/C (second compound 3.16 µM, first compound 0.003 µM) of the same molecule?
Its viability, T/C is 87%.

And the viability, T/C (second compound 3.16 µM, first compound 0.00949 µM)?
The viability, T/C was 29.9%.

What about the viability, T/C (second compound 3.16 µM, first compound 0.03 µM) of the same molecule?
The viability, T/C was 10.1%.

What about the viability, T/C (second compound 3.16 µM, first compound 0.0949 µM) of the same molecule?
The viability, T/C was 8.03%.

And the viability, T/C (second compound 3.16 µM, first compound 0.3 µM)?
Its viability, T/C is 7.36%.

What about the viability, T/C (second compound 10 µM, first compound 0.000949 µM) of the same molecule?
The viability, T/C was 101%.

What about the viability, T/C (second compound 10 µM, first compound 0.003 µM) of the same molecule?
Its viability, T/C is 91.4%.

What about the viability, T/C (second compound 10 µM, first compound 0.00949 µM) of the same molecule?
Its viability, T/C is 34%.

What about the viability, T/C (second compound 10 µM, first compound 0.03 µM) of the same molecule?
Its viability, T/C is 13.2%.

What about the viability, T/C (second compound 10 µM, first compound 0.0949 µM) of the same molecule?
The viability, T/C was 10.4%.

And the viability, T/C (second compound 10 µM, first compound 0.3 µM)?
The viability, T/C was 11.8%.

For `CC(C)CC(NC(=O)CNC(=O)c1cc(Cl)ccc1Cl)B1OC(=O)CC(CC(=O)O)(C(=O)O)O1` (configuration not stated), which viability, T/C (compound 0.000316 µM) is on record?
Its viability, T/C is 102% and 97.5%.

And the viability, T/C (compound 0.001 µM)?
The viability, T/C was 98.9% and 91.9%.

What about the viability, T/C (compound 0.00316 µM) of the same molecule?
Its viability, T/C is 90.3% and 96%.

And the viability, T/C (compound 0.01 µM)?
The viability, T/C was 52.4% and 36.7%.

And the viability, T/C (compound 0.0316 µM)?
The viability, T/C was 7.69% and 2.11%.

And the viability, T/C (compound 0.1 µM)?
Its viability, T/C is 15.7% and 0.34%.

And the IC50 (curve of compound)?
Its IC50 is 10.3 nM and 7.69 nM.
